Measurements published in PubChem BioAssay (NCI).
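Exposure lasted 48 hours, with cells grown in 96-well plates and compounds tested at five concentrations. At the TGI there is no net growth.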

How the values were obtained:
Assay in all cases: NCI tumour cell line growth inhibition, 48 h
IGROV1 ovarian = system: IGROV1 ovarian
RXF 393 renal = system: RXF 393 renal
EKVX NSCLC = system: EKVX NSCLC
UACC-62 melanoma = system: UACC-62 melanoma
UACC-257 melanoma = system: UACC-257 melanoma
MALME-3M melanoma = system: MALME-3M melanoma
U251 CNS = system: U251 CNS
SN12C renal = system: SN12C renal
SF-268 CNS = system: SF-268 CNS
CAKI-1 renal = system: CAKI-1 renal
UO-31 renal = system: UO-31 renal
HOP-18 NSCLC = system: HOP-18 NSCLC
SNB-78 CNS = system: SNB-78 CNS
SNB-19 CNS = system: SNB-19 CNS
SK-MEL-28 melanoma = system: SK-MEL-28 melanoma
HT29 colon = system: HT29 colon
COLO 205 colon = system: COLO 205 colon
CCRF-CEM leukemia = system: CCRF-CEM leukemia
TK-10 renal = system: TK-10 renal
SF-295 CNS = system: SF-295 CNS
OVCAR-8 ovarian = system: OVCAR-8 ovarian
SF-539 CNS = system: SF-539 CNS
M14 melanoma = system: M14 melanoma
KM20L2 colon = system: KM20L2 colon
NCI-H226 lung = system: NCI-H226 lung
A498 renal = system: A498 renal
OVCAR-5 ovarian = system: OVCAR-5 ovarian
K-562 leukemia = system: K-562 leukemia
HOP-92 NSCLC = system: HOP-92 NSCLC
786-0 renal = system: 786-0 renal
SW-620 colon = system: SW-620 colon
NCI-H23 lung = system: NCI-H23 lung
KM12 colon = system: KM12 colon
LOX IMVI melanoma = system: LOX IMVI melanoma
OVCAR-3 ovarian = system: OVCAR-3 ovarian
OVCAR-4 ovarian = system: OVCAR-4 ovarian
SNB-75 CNS = system: SNB-75 CNS
SK-MEL-5 melanoma = system: SK-MEL-5 melanoma
A549 NSCLC = system: A549 NSCLC
SK-OV-3 ovarian = system: SK-OV-3 ovarian
HCT-116 colon = system: HCT-116 colon
NCI-H522 lung = system: NCI-H522 lung
DLD-1 colon = system: DLD-1 colon
HOP-62 NSCLC = system: HOP-62 NSCLC
LXFL 529 NSCLC = system: LXFL 529 NSCLC
DMS 114 small cell lung = system: DMS 114 small cell lung
ACHN renal = system: ACHN renal
NCI-H460 lung = system: NCI-H460 lung
SK-MEL-2 melanoma = system: SK-MEL-2 melanoma
HCT-15 colon = system: HCT-15 colon
DMS 273 small cell lung = system: DMS 273 small cell lung
HCC-2998 colon = system: HCC-2998 colon
MOLT-4 leukemia = system: MOLT-4 leukemia
SR leukemia = system: SR leukemia
RPMI-8226 leukemia = system: RPMI-8226 leukemia
XF 498 CNS = system: XF 498 CNS
M19-MEL melanoma = system: M19-MEL melanoma
HL-60(TB) leukemia = system: HL-60(TB) leukemia

Measured: TGI

CC1CCC2[C@@H](C)COC3O[C@]4(C)CCC1C32OO4 (stereo partly drawn)
> 100 µM: IGROV1 ovarian | RXF 393 renal | EKVX NSCLC | UACC-62 melanoma | UACC-257 melanoma | MALME-3M melanoma | U251 CNS | SN12C renal | SF-268 CNS | CAKI-1 renal | UO-31 renal | HOP-18 NSCLC | SNB-78 CNS | SNB-19 CNS | SK-MEL-28 melanoma | HT29 colon | COLO 205 colon | CCRF-CEM leukemia | TK-10 renal | SF-295 CNS | OVCAR-8 ovarian | SF-539 CNS | M14 melanoma | KM20L2 colon | NCI-H226 lung | A498 renal | OVCAR-5 ovarian | K-562 leukemia | HOP-92 NSCLC | 786-0 renal | SW-620 colon | NCI-H23 lung | KM12 colon | LOX IMVI melanoma | OVCAR-3 ovarian | OVCAR-4 ovarian | SNB-75 CNS | SK-MEL-5 melanoma | A549 NSCLC | SK-OV-3 ovarian | HCT-116 colon | NCI-H522 lung | DLD-1 colon | HOP-62 NSCLC | LXFL 529 NSCLC | DMS 114 small cell lung | ACHN renal | NCI-H460 lung | SK-MEL-2 melanoma | HCT-15 colon | DMS 273 small cell lung | HCC-2998 colon

CC(=O)Nc1ccc(OCC(O)CO)cc1 (stereo not drawn)
21.6 µM: SW-620 colon
> 100 µM: IGROV1 ovarian | RXF 393 renal | MOLT-4 leukemia | EKVX NSCLC | UACC-62 melanoma | SR leukemia | UACC-257 melanoma | MALME-3M melanoma | U251 CNS | SN12C renal | SF-268 CNS | CAKI-1 renal | UO-31 renal | HOP-18 NSCLC | SNB-78 CNS | SNB-19 CNS | SK-MEL-28 melanoma | HT29 colon | COLO 205 colon | CCRF-CEM leukemia | TK-10 renal | SF-295 CNS | OVCAR-8 ovarian | SF-539 CNS | M14 melanoma | XF 498 CNS | KM20L2 colon | NCI-H226 lung | A498 renal | OVCAR-5 ovarian | K-562 leukemia | HOP-92 NSCLC | NCI-H23 lung | KM12 colon | OVCAR-3 ovarian | OVCAR-4 ovarian | SNB-75 CNS | SK-MEL-5 melanoma | A549 NSCLC | SK-OV-3 ovarian | HCT-116 colon | NCI-H522 lung | HOP-62 NSCLC | LXFL 529 NSCLC | M19-MEL melanoma | ACHN renal | NCI-H460 lung | SK-MEL-2 melanoma | HCT-15 colon | DMS 273 small cell lung | HCC-2998 colon
54.1 µM: DLD-1 colon
73.1 µM: LOX IMVI melanoma
70.2 µM: 786-0 renal
43.9 µM: RPMI-8226 leukemia

C(=NCCN=Cc1cccc2ccccc12)c1cccc2ccccc12
> 100 µM: IGROV1 ovarian | RXF 393 renal | MOLT-4 leukemia | EKVX NSCLC | UACC-62 melanoma | SR leukemia | UACC-257 melanoma | MALME-3M melanoma | U251 CNS | SN12C renal | CAKI-1 renal | UO-31 renal | HOP-18 NSCLC | SNB-78 CNS | SNB-19 CNS | RPMI-8226 leukemia | SK-MEL-28 melanoma | HT29 colon | COLO 205 colon | TK-10 renal | SF-295 CNS | OVCAR-8 ovarian | SF-539 CNS | XF 498 CNS | KM20L2 colon | NCI-H226 lung | OVCAR-5 ovarian | K-562 leukemia | 786-0 renal | SW-620 colon | NCI-H23 lung | KM12 colon | OVCAR-4 ovarian | SNB-75 CNS | SK-MEL-5 melanoma | A549 NSCLC | SK-OV-3 ovarian | HCT-116 colon | NCI-H522 lung | DLD-1 colon | LXFL 529 NSCLC | DMS 114 small cell lung | M19-MEL melanoma | ACHN renal | NCI-H460 lung | SK-MEL-2 melanoma | HCT-15 colon | DMS 273 small cell lung | HCC-2998 colon

COc1cc2c(cc1OC)C(=O)N1CCCC1C(=O)S2 (stereo not drawn)
> 100 µM: IGROV1 ovarian | RXF 393 renal | MOLT-4 leukemia | EKVX NSCLC | UACC-62 melanoma | SR leukemia | UACC-257 melanoma | MALME-3M melanoma | U251 CNS | SN12C renal | SF-268 CNS | UO-31 renal | HOP-18 NSCLC | SNB-78 CNS | SNB-19 CNS | RPMI-8226 leukemia | SK-MEL-28 melanoma | COLO 205 colon | CCRF-CEM leukemia | TK-10 renal | SF-295 CNS | OVCAR-8 ovarian | SF-539 CNS | M14 melanoma | XF 498 CNS | KM20L2 colon | OVCAR-5 ovarian | K-562 leukemia | HOP-92 NSCLC | 786-0 renal | SW-620 colon | NCI-H23 lung | KM12 colon | LOX IMVI melanoma | OVCAR-3 ovarian | SK-MEL-5 melanoma | A549 NSCLC | SK-OV-3 ovarian | HL-60(TB) leukemia | HCT-116 colon | NCI-H522 lung | DLD-1 colon | HOP-62 NSCLC | LXFL 529 NSCLC | DMS 114 small cell lung | ACHN renal | NCI-H460 lung | SK-MEL-2 melanoma | HCT-15 colon | DMS 273 small cell lung | HCC-2998 colon
